System: Human immunodeficiency virus 1
Assay: Antiviral activity against Human immunodeficiency virus 1 assessed as inhibition of viral replication by MTT assay
Format: functional, organism-based

First: [N-]=[N+]=N[C@]1(CO)O[C@@H](n2ccc3c(N)ncnc32)[C@@H](F)[C@@H]1O
Second: [N-]=[N+]=N[C@]1(CO)O[C@@H](n2ccc3c(O)ncnc32)[C@@H](F)[C@@H]1O
The EC50 of the first is 26-fold lower: 500 nM for the first, 13000 nM for the second.

Going from `[N-]=[N+]=N[C@]1(CO)O[C@@H](n2cc(F)c3c(N)ncnc32)[C@@H](F)[C@@H]1O` to `Cc1cn([C@H]2C[C@H](N=[N+]=[N-])[C@@H](CO)O2)c(=O)[nH]c1=O` [ZIDOVUDINE], the EC50 falls from 5400 nM to 84 nM (64-fold).

From ChEMBL document CHEMBL1909599, “Synthesis and anti-HIV-1 activity of 4-substituted-7-(2'-deoxy-2'-fluoro-4'-azido-β-D-ribofuranosyl)pyrrolo[2,3-d]pyrimidine analogues” (Bioorg Med Chem Lett, 2011)
